# From patent US20110082130A1 (LIGAND PHARMACEUTICALS, INC., priority 2006, published 2011)
# Molecular target: T1, chimeric human H3 receptor (Homo sapiens, UniProt Q9Y5N1)
# T1 construct: made in house; host or cells: Sf9 insect cells (baculovirus); P2 membrane preparation
# Experiment: Chimeric human H3 receptor GTP binding assay (agonist-stimulated GTP-gamma35S binding, Example 7)
# Type: biochemical
# Conditions: assay of Example 7; "*" in Ki of Table II
# In short: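 Sf9 membranes co-expressing chimeric human H3 receptor and heterotrimeric G-protein, 35 μg/tube, in pH 7.4 Tris buffer with 10 μM GDP. Test compounds (10^−10–10^−6 M) competed against 1 μM histamine, […] GTP-gamma35S, 60 min at room temperature. Filter-bound radioactivity counted; IC50 converted to Ki by Cheng-Prusoff. Agonism/inverse agonism tested without histamine (EC50).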
# T1 sequence (Q9Y5N1 with tags, fused parts or gaps): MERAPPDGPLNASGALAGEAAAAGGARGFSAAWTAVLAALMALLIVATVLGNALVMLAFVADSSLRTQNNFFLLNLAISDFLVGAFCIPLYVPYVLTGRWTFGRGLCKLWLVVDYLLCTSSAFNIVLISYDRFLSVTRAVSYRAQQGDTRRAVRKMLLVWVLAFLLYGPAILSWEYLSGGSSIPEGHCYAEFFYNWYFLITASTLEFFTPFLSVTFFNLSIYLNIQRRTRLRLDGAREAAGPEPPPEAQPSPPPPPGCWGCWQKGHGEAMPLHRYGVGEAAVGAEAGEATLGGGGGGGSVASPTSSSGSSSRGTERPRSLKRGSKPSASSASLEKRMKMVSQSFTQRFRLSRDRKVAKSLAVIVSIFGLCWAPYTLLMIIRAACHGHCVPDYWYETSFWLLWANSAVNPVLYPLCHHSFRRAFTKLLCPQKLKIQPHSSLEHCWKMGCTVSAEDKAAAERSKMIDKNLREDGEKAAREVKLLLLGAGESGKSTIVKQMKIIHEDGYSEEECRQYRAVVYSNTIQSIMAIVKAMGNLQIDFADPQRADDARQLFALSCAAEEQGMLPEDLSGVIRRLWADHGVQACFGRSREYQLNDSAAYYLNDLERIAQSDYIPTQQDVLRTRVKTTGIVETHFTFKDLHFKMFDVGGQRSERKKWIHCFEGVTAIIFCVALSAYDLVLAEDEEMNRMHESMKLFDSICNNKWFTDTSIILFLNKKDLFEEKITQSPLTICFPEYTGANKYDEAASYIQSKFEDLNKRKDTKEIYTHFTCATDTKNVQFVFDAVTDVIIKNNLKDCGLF
row,Ki,SMILES
1,< 1000 nM,"Cc1ccc(-c2nc3c(s2)CN(CC(=O)N2CCN(C4CCC4)CC2)CC3)cc1 [Compound 305, 5-[2-(4-cyclobutylpiperazin-1-yl)-2-oxoethyl]-2-(4-methylphenyl)-4,5,6,7-tetrahydro[1,3]thiazolo [5,4-c]pyridine]"
2,< 1000 nM,"CC(C)c1cccc(-c2nc3c(s2)CN(CC(=O)N2CCN(C4CCC4)CC2)CC3)c1 [Compound 306, 5-[2-(4-cyclobutylpiperazin-1-yl)-2-oxoethyl]-2-(3-isopropylphenyl)-4,5,6,7-tetrahydro[1,3]thiazolo [5,4-c]pyridine]"
3,< 1000 nM,"CC(C)c1ccc(-c2nc3c(s2)CN(CC(=O)N2CCN(C4CCC4)CC2)CC3)cc1 [Compound 307, 5-[2-(4-cyclobutylpiperazin-1-yl)-2-oxoethyl]-2-(4-isopropylphenyl)-4,5,6,7-tetrahydro[1,3]thiazolo [5,4-c]pyridine]"
4,< 1000 nM,"Cc1ccc(-c2nc3c(s2)CN(CC(=O)N2CCN(C4CCC4)CC2)CC3)cc1C [Compound 308, 5-[2-(4-cyclobutylpiperazin-1-yl)-2-oxoethyl]-2-(3,4-dimethylphenyl)-4,5,6,7-tetrahydro[1,3]thiazolo [5,4-c]pyridine]"
5,< 1000 nM,"CCCCc1ccc(-c2nc3c(s2)CN(CC(=O)N2CCN(C4CCC4)CC2)CC3)cc1 [Compound 309, 2-(4-butylphenyl)-5-[2-(4-cyclobutylpiperazin-1-yl)-2-oxoethyl]-4,5,6,7-tetrahydro[1,3]thiazolo [5,4-c]pyridine]"
6,< 1000 nM,"Cc1cc(C)cc(-c2nc3c(s2)CN(CC(=O)N2CCN(C4CCC4)CC2)CC3)c1 [Compound 310, 5-[2-(4-cyclobutylpiperazin-1-yl)-2-oxoethyl]-2-(3,5-dimethylphenyl)-4,5,6,7-tetrahydro[1,3]thiazolo [5,4-c]pyridine]"
7,< 1000 nM,"CCc1ccc(-c2nc3c(s2)CN(CC(=O)N2CCN(C4CCC4)CC2)CC3)cc1 [Compound 311, 5-[2-(4-cyclobutylpiperazin-1-yl)-2-oxoethyl]-2-(4-ethylphenyl)-4,5,6,7-tetrahydro[1,3]thiazolo [5,4-c]pyridine]"
8,< 1000 nM,"CCCc1ccc(-c2nc3c(s2)CN(CC(=O)N2CCN(C4CCC4)CC2)CC3)cc1 [Compound 312, 5-[2-(4-cyclobutylpiperazin-1-yl)-2-oxoethyl]-2-(4-propylphenyl)-4,5,6,7-tetrahydro[1,3]thiazolo [5,4-c]pyridine]"
9,< 1000 nM,"CCc1cccc(-c2nc3c(s2)CN(CC(=O)N2CCN(C4CCC4)CC2)CC3)c1 [Compound 313, 5-[2-(4-cyclobutylpiperazin-1-yl)-2-oxoethyl]-2-(3-ethylphenyl)-4,5,6,7-tetrahydro[1,3]thiazolo [5,4-c]pyridine]"
10,< 1000 nM,"CC(C)(C)c1ccc(-c2nc3c(s2)CN(CC(=O)N2CCN(C4CCC4)CC2)CC3)cc1 [Compound 314, 2-(4-tert-butylphenyl)-5-[2-(4-cyclobutylpiperazin-1-yl)-2-oxoethyl]-4,5,6,7-tetrahydro[1,3]thiazolo [5,4-c]pyridine]"
11,< 1000 nM,"COc1cccc(-c2nc3c(s2)CN(CC(=O)N2CCN(C4CCC4)CC2)CC3)c1 [Compound 315, 5-[2-(4-cyclobutylpiperazin-1-yl)-2-oxoethyl]-2-(3-methoxyphenyl)-4,5,6,7-tetrahydro[1,3]thiazolo [5,4-c]pyridine]"
12,< 1000 nM,"O=C(CN1CCc2nc(-c3ccc(OC(F)(F)F)cc3)sc2C1)N1CCN(C2CCC2)CC1 [Compound 316, 5-[2-(4-cyclobutylpiperazin-1-yl)-2-oxoethyl]-2-[4-(trifluoromethoxy)phenyl]-4,5,6,7-tetrahydro[1,3]thiazolo [5,4-c]pyridine]"
13,< 1000 nM,"CCOc1cccc(-c2nc3c(s2)CN(CC(=O)N2CCN(C4CCC4)CC2)CC3)c1 [Compound 317, 5-[2-(4-cyclobutylpiperazin-1-yl)-2-oxoethyl]-2-(3-ethoxyphenyl)-4,5,6,7-tetrahydro[1,3]thiazolo [5,4-c]pyridine]"
14,< 1000 nM,"O=C(CN1CCc2nc(-c3ccc(Oc4ccccc4)cc3)sc2C1)N1CCN(C2CCC2)CC1 [Compound 318, 5-[2-(4-cyclobutylpiperazin-1-yl)-2-oxoethyl]-2-(4-phenoxyphenyl)-4,5,6,7-tetrahydro[1,3]thiazolo [5,4-c]pyridine]"
15,< 1000 nM,"O=C(CN1CCc2nc(-c3cccc(OC(F)(F)F)c3)sc2C1)N1CCN(C2CCC2)CC1 [Compound 319, 5-[2-(4-cyclobutylpiperazin-1-yl)-2-oxoethyl]-2-[3-(trifluoromethoxy)phenyl]-4,5,6,7-tetrahydro[1,3]thiazolo [5,4-c]pyridine]"
16,< 1000 nM,"CSc1cccc(-c2nc3c(s2)CN(CC(=O)N2CCN(C4CCC4)CC2)CC3)c1 [Compound 320, 5-[2-(4-cyclobutylpiperazin-1-yl)-2-oxoethyl]-2-[3-(methylthio)phenyl]-4,5,6,7-tetrahydro[1,3]thiazolo [5,4-c]pyridine]"
17,< 1000 nM,"COc1ccc(-c2ccc(-c3nc4c(s3)CN(CC(=O)N3CCN(C5CCC5)CC3)CC4)cc2)cc1 [Compound 321, 5-[2-(4-cyclobutylpiperazin-1-yl)-2-oxoethyl]-2-(4′-methoxybiphenyl-4-yl)-4,5,6,7-tetrahydro[1,3]thiazolo [5,4-c]pyridine]"

row,Ki,SMILES
1,< 1000 nM,"COc1ccc(-c2nc3c(s2)CN(CC(=O)N2CCN(C4CCC4)CC2)CC3)cc1F [Compound 322, 5-[2-(4-cyclobutylpiperazin-1-yl)-2-oxoethyl]-2-(3-fluoro-4-methoxyphenyl)-4,5,6,7-tetrahydro[1,3]thiazolo [5,4-c]pyridine]"
2,< 1000 nM,"COc1cc(F)c(-c2nc3c(s2)CN(CC(=O)N2CCN(C4CCC4)CC2)CC3)cc1F [Compound 323, 5-[2-(4-cyclobutylpiperazin-1-yl)-2-oxoethyl]-2-(2,5-difluoro-4-methoxyphenyl)-4,5,6,7-tetrahydro[1,3]thiazolo [5,4-c]pyridine]"
3,< 1000 nM,"COc1ccc2cc(-c3nc4c(s3)CN(CC(=O)N3CCN(C5CCC5)CC3)CC4)ccc2c1 [Compound 324, 5-[2-(4-cyclobutylpiperazin-1-yl)-2-oxoethyl]-2-(6-methoxy-2-naphthyl)-4,5,6,7-tetrahydro[1,3]thiazolo [5,4-c]pyridine]"
4,< 1000 nM,"CC(C)Oc1cccc(-c2nc3c(s2)CN(CC(=O)N2CCN(C4CCC4)CC2)CC3)c1 [Compound 325, 5-[2-(4-cyclobutylpiperazin-1-yl)-2-oxoethyl]-2-(3-isopropoxyphenyl)-4,5,6,7-tetrahydro[1,3]thiazolo [5,4-c]pyridine]"
5,< 1000 nM,"COc1cc(-c2nc3c(s2)CN(CC(=O)N2CCN(C4CCC4)CC2)CC3)cc(OC)c1OC [Compound 326, 5-[2-(4-cyclobutylpiperazin-1-yl)-2-oxoethyl]-2-(3,4,5-trimethoxyphenyl)-4,5,6,7-tetrahydro[1,3]thiazolo [5,4-c]pyridine]"
6,< 1000 nM,"COc1ccc(-c2nc3c(s2)CN(CC(=O)N2CCN(C4CCC4)CC2)CC3)cc1 [Compound 327, 5-[2-(4-cyclobutylpiperazin-1-yl)-2-oxoethyl]-2-(4-methoxyphenyl)-4,5,6,7-tetrahydro[1,3]thiazolo [5,4-c]pyridine]"
7,< 1000 nM,"O=C(CN1CCc2nc(-c3ccc4c(c3)OCO4)sc2C1)N1CCN(C2CCC2)CC1 [Compound 328, 2-(1,3-benzodioxol-5-yl)-5-[2-(4-cyclobutylpiperazin-1-yl)-2-oxoethyl]-4,5,6,7-tetrahydro[1,3]thiazolo [5,4-c]pyridine]"
8,< 1000 nM,"COc1ccc(-c2nc3c(s2)CN(CC(=O)N2CCN(C4CCC4)CC2)CC3)cc1OC [Compound 329, 5-[2-(4-cyclobutylpiperazin-1-yl)-2-oxoethyl]-2-(3,4-dimethoxyphenyl)-4,5,6,7-tetrahydro[1,3]thiazolo [5,4-c]pyridine]"
9,< 1000 nM,"CCOc1ccc(-c2nc3c(s2)CN(CC(=O)N2CCN(C4CCC4)CC2)CC3)cc1 [Compound 330, 5-[2-(4-cyclobutylpiperazin-1-yl)-2-oxoethyl]-2-(4-ethoxyphenyl)-4,5,6,7-tetrahydro[1,3]thiazolo [5,4-c]pyridine]"
10,< 1000 nM,"CN(C)c1ccc(-c2nc3c(s2)CN(CC(=O)N2CCN(C4CCC4)CC2)CC3)cc1 [Compound 331, 4-{5-[2-(4-cyclobutylpiperazin-1-yl)-2-oxoethyl]-4,5,6,7-tetrahydro[1,3]thiazolo [5,4-c]pyridin-2-yl}-N,N-dimethylaniline]"
11,< 1000 nM,O=C(CN1CCc2nc(-c3ccc4c(c3)OCCO4)sc2C1)N1CCN(C2CCC2)CC1 [Compound 332]
12,< 1000 nM,"COc1ccc(-c2nc3c(s2)CN(CC(=O)N2CCN(C4CCC4)CC2)CC3)cc1C [Compound 333, 5-[2-(4-cyclobutylpiperazin-1-yl)-2-oxoethyl]-2-(4-methoxy-3-methylphenyl)-4,5,6,7-tetrahydro[1,3]thiazolo [5,4-c]pyridine]"
13,< 1000 nM,"CCCOc1ccc(-c2nc3c(s2)CN(CC(=O)N2CCN(C4CCC4)CC2)CC3)cc1 [Compound 334, 5-[2-(4-cyclobutylpiperazin-1-yl)-2-oxoethyl]-2-(4-propoxyphenyl)-4,5,6,7-tetrahydro[1,3]thiazolo [5,4-c]pyridine]"
14,< 1000 nM,"COc1ccc(-c2nc3c(s2)CN(CC(=O)N2CCN(C4CCC4)CC2)CC3)c(C)c1 [Compound 335, 5-[2-(4-cyclobutylpiperazin-1-yl)-2-oxoethyl]-2-(4-methoxy-2-methylphenyl)-4,5,6,7-tetrahydro[1,3]thiazolo [5,4-c]pyridine]"
15,< 1000 nM,"COc1ccccc1-c1nc2c(s1)CN(CC(=O)N1CCN(C3CCC3)CC1)CC2 [Compound 336, 5-[2-(4-cyclobutylpiperazin-1-yl)-2-oxoethyl]-2-(2-methoxyphenyl)-4,5,6,7-tetrahydro[1,3]thiazolo [5,4-c]pyridine]"
16,< 1000 nM,"COc1ccc(Cl)cc1-c1nc2c(s1)CN(CC(=O)N1CCN(C3CCC3)CC1)CC2 [Compound 338, 2-(5-chloro-2-methoxyphenyl)-5-[2-(4-cyclobutylpiperazin-1-yl)-2-oxoethyl]-4,5,6,7-tetrahydro[1,3]thiazolo [5,4-c]pyridine]"
